Data published in ChEMBL document CHEMBL1201862, “PubChem BioAssay data set” (2004).
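Briefly, cells in 96-well plates were exposed to five compound concentrations for 48 h, and endpoints were estimated by linear interpolation. The concentration for 50% growth inhibition is given as GI50.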 Active and inactive are the calls of the source. No stated cut-off is given here; in the data, active = GI50 up to about 1.1 µM and inactive = higher.

Columns and labels:
Experiment in all cases: inhibition of tumour cell growth, NCI panel, 48 h
OVCAR-5 = system: OVCAR-5
IGROV-1 = system: IGROV-1
SR = system: SR
A549 = system: A549
OVCAR-4 = system: OVCAR-4
PC-3 = system: PC-3
CCRF-CEM = system: CCRF-CEM
A498 = system: A498
OVCAR-3 = system: OVCAR-3
MCF7 = system: MCF7
T47D = system: T47D
RXF 393 = system: RXF 393
Malme-3M = system: Malme-3M
SK-OV-3 = system: SK-OV-3
HCC 2998 = system: HCC 2998
MDA-MB-435 = system: MDA-MB-435
UACC-257 = system: UACC-257
CAKI-1 = system: CAKI-1
NCI/ADR-RES = system: NCI/ADR-RES
UACC-62 = system: UACC-62
DU-145 = system: DU-145
SK-MEL-28 = system: SK-MEL-28
KM12 = system: KM12
SF-295 = system: SF-295
UO-31 = system: UO-31
SN12C = system: SN12C
786-0 = system: 786-0
ACHN = system: ACHN
MOLT-4 = system: MOLT-4
SNB-75 = system: SNB-75
U-251 = system: U-251
NCI-H23 = system: NCI-H23
OVCAR-8 = system: OVCAR-8
SW-620 = system: SW-620
SF-268 = system: SF-268
K562 = system: K562
HL-60 = system: HL-60
HCT-116 = system: HCT-116
HOP-92 = system: HOP-92
NCI-H226 = system: NCI-H226
NCI-H460 = system: NCI-H460
LOX IMVI = system: LOX IMVI
HT-29 = system: HT-29
BT-549 = system: BT-549
NCI-H522 = system: NCI-H522
MDA-MB-231 = system: MDA-MB-231
M14 = system: M14
Hs-578T = system: Hs-578T
COLO 205 = system: COLO 205
EKVX = system: EKVX
SF-539 = system: SF-539
SK-MEL-5 = system: SK-MEL-5
HOP-62 = system: HOP-62
SK-MEL-2 = system: SK-MEL-2
TK-10 = system: TK-10
HCT-15 = system: HCT-15
SNB-19 = system: SNB-19
RPMI-8226 = system: RPMI-8226
MDA-N = system: MDA-N

NC(=O)c1ncn(C2OC(CO)C(O)C2O)c1NC=O (stereo not drawn)
GI50 (OVCAR-5): > 100 µM (inactive)
GI50 (IGROV-1): > 100 µM (inactive)
GI50 (SR): > 100 µM (inactive)
GI50 (A549): > 100 µM (inactive)
GI50 (OVCAR-4): > 100 µM (inactive)
GI50 (PC-3): > 100 µM (inactive)
GI50 (CCRF-CEM): > 100 µM (inactive)
GI50 (A498): > 100 µM (inactive)
GI50 (OVCAR-3): > 100 µM (inactive)
GI50 (MCF7): > 100 µM (inactive)
GI50 (T47D): > 100 µM (inactive)
GI50 (RXF 393): > 100 µM (inactive)
GI50 (Malme-3M): > 100 µM (inactive)
GI50 (SK-OV-3): > 100 µM (inactive)
GI50 (HCC 2998): > 100 µM (inactive)
GI50 (MDA-MB-435): > 100 µM (inactive)
GI50 (UACC-257): > 100 µM (inactive)
GI50 (CAKI-1): > 100 µM (inactive)
GI50 (NCI/ADR-RES): > 100 µM (inactive)
GI50 (UACC-62): > 100 µM (inactive)
GI50 (DU-145): > 100 µM (inactive)
GI50 (SK-MEL-28): > 100 µM (inactive)
GI50 (KM12): > 100 µM (inactive)
GI50 (SF-295): > 100 µM (inactive)
GI50 (UO-31): > 100 µM (inactive)
GI50 (SN12C): > 100 µM (inactive)
GI50 (786-0): > 100 µM (inactive)
GI50 (ACHN): > 100 µM (inactive)
GI50 (MOLT-4): > 100 µM (inactive)
GI50 (SNB-75): > 100 µM (inactive)
GI50 (U-251): > 100 µM (inactive)
GI50 (NCI-H23): > 100 µM (inactive)
GI50 (OVCAR-8): > 100 µM (inactive)
GI50 (SW-620): > 100 µM (inactive)
GI50 (SF-268): > 100 µM (inactive)
GI50 (K562): > 100 µM (inactive)
GI50 (HL-60): > 100 µM (inactive)
GI50 (HCT-116): > 100 µM (inactive)
GI50 (HOP-92): > 100 µM (inactive)
GI50 (NCI-H226): > 100 µM (inactive)
GI50 (NCI-H460): > 100 µM (inactive)
GI50 (LOX IMVI): > 100 µM (inactive)
GI50 (HT-29): > 100 µM (inactive)
GI50 (BT-549): > 100 µM (inactive)
GI50 (NCI-H522): > 100 µM (inactive)
GI50 (MDA-MB-231): > 100 µM (inactive)
GI50 (M14): > 100 µM (inactive)
GI50 (Hs-578T): > 100 µM (inactive)
GI50 (COLO 205): > 100 µM (inactive)
GI50 (EKVX): > 100 µM (inactive)
GI50 (SF-539): > 100 µM (inactive)
GI50 (SK-MEL-5): > 100 µM (inactive)
GI50 (HOP-62): > 100 µM (inactive)
GI50 (SK-MEL-2): > 100 µM (inactive)
GI50 (TK-10): > 100 µM (inactive)
GI50 (HCT-15): > 100 µM
GI50 (SNB-19): > 100 µM (inactive)
GI50 (RPMI-8226): > 100 µM (inactive)
GI50 (MDA-N): > 100 µM (inactive)

O=[N+]([O-])c1ccc(C(Nc2ccccc2)c2ccc3cccnc3c2O)cc1 (stereo not drawn)
GI50 (OVCAR-5): 8.2 µM (inactive)
GI50 (IGROV-1): 10.6 µM (inactive)
GI50 (SR): 0.474 µM (active)
GI50 (A549): 8.04 µM (inactive)
GI50 (OVCAR-4): 5.69 µM (inactive)
GI50 (PC-3): 10.8 µM (inactive)
GI50 (CCRF-CEM): 2.17 µM (inactive)
GI50 (A498): 24.1 µM (inactive)
GI50 (OVCAR-3): 4.02 µM (inactive)
GI50 (MCF7): 4.83 µM (inactive)
GI50 (T47D): 5.25 µM (inactive)
GI50 (RXF 393): 5.15 µM (inactive)
GI50 (Malme-3M): 14.7 µM (inactive)
GI50 (SK-OV-3): 23.8 µM (inactive)
GI50 (HCC 2998): 12.9 µM (inactive)
GI50 (MDA-MB-435): 14.4 µM (inactive)
GI50 (UACC-257): 13.8 µM (inactive)
GI50 (CAKI-1): 6.25 µM (inactive)
GI50 (NCI/ADR-RES): 3.67 µM (inactive)
GI50 (UACC-62): 12.9 µM (inactive)
GI50 (DU-145): 9.14 µM (inactive)
GI50 (SK-MEL-28): 40.6 µM (inactive)
GI50 (KM12): 7.94 µM (inactive)
GI50 (SF-295): 4.37 µM (inactive)
GI50 (UO-31): 6.78 µM (inactive)
GI50 (SN12C): 7.94 µM (inactive)
GI50 (786-0): 4.37 µM (inactive)
GI50 (ACHN): 5.61 µM (inactive)
GI50 (MOLT-4): 0.423 µM (active)
GI50 (SNB-75): 6.67 µM (inactive)
GI50 (U-251): 3.55 µM (inactive)
GI50 (NCI-H23): 11.5 µM (inactive)
GI50 (OVCAR-8): 3.85 µM (inactive)
GI50 (SW-620): 6.27 µM (inactive)
GI50 (SF-268): 4.46 µM (inactive)
GI50 (K562): 12.6 µM (inactive)
GI50 (HL-60): 3.37 µM (inactive)
GI50 (HCT-116): 7.8 µM (inactive)
GI50 (HOP-92): 7.87 µM (inactive)
GI50 (NCI-H226): 3.78 µM (inactive)
GI50 (NCI-H460): 3.24 µM (inactive)
GI50 (LOX IMVI): 6.5 µM (inactive)
GI50 (HT-29): 7.08 µM (inactive)
GI50 (BT-549): 10.3 µM (inactive)
GI50 (NCI-H522): 4.24 µM (inactive)
GI50 (MDA-MB-231): 16.2 µM (inactive)
GI50 (M14): 9.4 µM (inactive)
GI50 (Hs-578T): 19.6 µM (inactive)
GI50 (COLO 205): 12.2 µM (inactive)
GI50 (EKVX): 6.04 µM (inactive)
GI50 (SF-539): 3.72 µM (inactive)
GI50 (SK-MEL-5): 7.18 µM (inactive)
GI50 (HOP-62): 7.48 µM (inactive)
GI50 (SK-MEL-2): 24.3 µM (inactive)
GI50 (TK-10): 8.49 µM (inactive)
GI50 (HCT-15): 4.26 µM
GI50 (SNB-19): 7.74 µM (inactive)
GI50 (RPMI-8226): 5.13 µM (inactive)
GI50 (MDA-N): 23.7 µM (inactive)
